Experiments:
Format in all cases: cell-based
E. coli DH5α = experiment: Antibacterial activity: MIC and growth curve against E. coli DH5α in 96-well plate; details: minimal inhibitory concentration against E. coli DH5α; 96-well plate, 5×10^5 CFU/mL, 37° C., judged after 8 h
How it was run: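 Log-phase bacteria (OD600 ~0.5) resuspended in LB at 5×10^5 CFU/mL, exposed to recombinant protein at 50, 25, 12.5 μg/mL final in triplicate, 37 °C shaking at 175 rpm. OD600 read every 30 min; MIC is lowest concentration showing no growth.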

E. coli BL21 = experiment: MIC against Gram-negative bacteria: E. coli BL21; details: E. coli BL21; 10 h cultivation at 37° C.; 5×10^5 CFU/mL
How it was run: (§1)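 Read-out is absence of bacterial growth, with MIC set at the lowest recombinant protein concentration achieving it. Bacteria, pre-grown in LB to McFarland 0.5 and resuspended, were exposed at 5×10^5 CFU/mL to two-fold diluted human EGF domain proteins in triplicate at 37° C, 175 rpm.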

Pseudomonas aeruginosa = experiment: MIC against Gram-negative bacteria: Pseudomonas aeruginosa; details: P. aeruginosa; 10 h cultivation at 37° C.; 5×10^5 CFU/mL
How it was run: as §1

Klebsiella pneumonia = experiment: MIC against Gram-negative bacteria: Klebsiella pneumonia; details: K. pneumonia; 10 h cultivation at 37° C.; 5×10^5 CFU/mL
How it was run: as §1

Enterobacter cloacae = experiment: MIC against Gram-negative bacteria: Enterobacter cloacae; details: E. cloacae; 10 h cultivation at 37° C.; 5×10^5 CFU/mL
How it was run: as §1

Aeromonas hydrophila = experiment: MIC against Gram-negative bacteria: Aeromonas hydrophila; details: A. hydrophila; 10 h cultivation at 37° C.; 5×10^5 CFU/mL
How it was run: as §1

Citrobacter diversus = experiment: MIC against Gram-negative bacteria: Citrobacter diversus; details: C. diversus; 10 h cultivation at 37° C.; 5×10^5 CFU/mL
How it was run: as §1

Moraxella catarrhalis = experiment: MIC against Gram-negative bacteria: Moraxella catarrhalis; details: M. catarrhalis; 10 h cultivation at 37° C.; 5×10^5 CFU/mL
How it was run: as §1

Proteus mirabilis = experiment: MIC against Gram-negative bacteria: Proteus mirabilis; details: P. mirabilis; 10 h cultivation at 37° C.; 5×10^5 CFU/mL
How it was run: as §1

Proteus vulgaris = experiment: MIC against Gram-negative bacteria: Proteus vulgaris; details: P. vulgaris; 10 h cultivation at 37° C.; 5×10^5 CFU/mL
How it was run: as §1

Serratia marcescens = experiment: MIC against Gram-negative bacteria: Serratia marcescens; details: S. marcescens; 10 h cultivation at 37° C.; 5×10^5 CFU/mL
How it was run: as §1

Substance	MIC (E. coli DH5α) [µg/mL]	MIC (μg/mL) E. coli BL21 (E. coli BL21) [µg/mL]	MIC (μg/mL) P. aeruginosa (Pseudomonas aeruginosa) [µg/mL]	MIC (μg/mL) K. pneumonia (Klebsiella pneumonia) [µg/mL]	MIC (μg/mL) E. cloacae (Enterobacter cloacae) [µg/mL]	MIC (μg/mL) A. hydrophila (Aeromonas hydrophila) [µg/mL]	MIC (μg/mL) C. diversus (Citrobacter diversus) [µg/mL]	MIC (μg/mL) M. catarrhalis (Moraxella catarrhalis) [µg/mL]	MIC (μg/mL) P. mirabilis (Proteus mirabilis) [µg/mL]	MIC (μg/mL) P. vulgaris (Proteus vulgaris) [µg/mL]	MIC (μg/mL) S. marcescens (Serratia marcescens) [µg/mL]
PRT844 (CRCNRHSECAGVGARDHCLLCRNHTKGSHCEQCLPLFVGSAVGGGTCRP; listed as Homo sapiens)	12.5	25	50	12.5	50	12.5	50	25	12.5	12.5	25
PRT846 (CNCSVVGSLNVNRCNQTTGQCECRPGYQGLHCETCKEGFYLNYTSGLCQP; listed as Homo sapiens)	25	12.5	25	50	12.5	12.5	12.5	12.5	12.5	12.5	12.5
PRT847 (CDCSPHGALSIPCNSSGKCQCKVGVIGSICDRCQDGYYGFSKNGCLP; listed as Homo sapiens)	12.5	25	12.5	12.5	25	12.5	25	12.5	12.5	12.5	12.5
PRT848 (CQCNNRSASCDALTGACLNCQENSKGNHCEECKEGFYQSPDATKECLR; listed as Homo sapiens)	25	12.5	25	25	50	12.5	50	12.5	50	25	12.5
PRT849 (CPCSAVTSTGSCSIKSSELEPECDQCKDGYIGPNCNKCENGYYNFDSICRK; listed as Homo sapiens)	12.5	12.5	12.5	12.5	12.5	25	12.5	25	12.5	12.5	25
PRT850 (CQCHGHVDPVKTPKICKPESGECINCLHNTTGFWCENCLEGYVHDLEGNCIK; listed as Homo sapiens)	50	25	12.5	50	12.5	50	12.5	50	12.5	25	50
PRT851 (DELDCGPSNCSQHGLCTETGCRCDAGWTGSNCS; listed as Homo sapiens)	25	12.5	25	12.5	12.5	12.5	12.5	12.5	25	12.5	25
PRT853 (DLNECGLKPRPCKHRCMNTYGSYKCYCLNGYMLMPDGSCS; listed as Homo sapiens)	25	12.5	25	50	25	12.5	25	50	25	25	12.5
PRT854 (TCSMANCQYGCDVVKGQIRCQCPSPGLQLAPDGRTCV; listed as Homo sapiens)	12.5	12.5	100	12.5	12.5	12.5	12.5	50	12.5	50	12.5
PRT855 (DVDECATGRASCPRFRQCVNTFGSYICKCHKGFDLMYIGGKYQCH; listed as Homo sapiens)	50	12.5	50	25	12.5	50	12.5	12.5	12.5	12.5	12.5
PRT865 (CSCHPVGSAVLPANSVTFCDPSNGDCPCKPGVAGRRCDRCMVGYWGFGDYGCRP; listed as Homo sapiens)	25	12.5	25	50	12.5	50	12.5	50	25	12.5	12.5
PRT866 (CQCHGHAARCAARARPPRCHCRHHTTGPGCESCRPSHRDWPWRPATPRHPHPCLP; listed as Homo sapiens)	25	12.5	25	12.5	12.5	12.5	12.5	12.5	12.5	25	12.5
PRT869 (CKCNLHATVCVYDNSKLTCECEHNTTGPDCGKCKKNYQGRPWSPGSYLPIPKGTANTCIP; listed as Homo sapiens)	12.5	25	12.5	12.5	12.5	12.5	12.5	12.5	12.5	12.5	50
PRT870 (CECFGHSNRCSYIDLLNTVICVSCKHNTRGQHCELCRLGYFRNASAQLDDENVCIE; listed as Homo sapiens)	12.5	50	100	50	25	12.5	25	50	25	12.5	50
PRT871 (CYCNPLGSIHDRCNGSGFCECKTGTTGPKCDECLPGNSWHYGCQPNVCDN; listed as Homo sapiens)	12.5	25	50	12.5	12.5	12.5	12.5	25	12.5	50	12.5

Reference: patent US9833497B2, “Human originated EGF domain proteins and use of the same” (CHENGDU SOURCEBIO LIMITED-LIABILITY COMPANY, priority 2013, dated 2017)
